Source: patent US6914045B2, “Glycopeptide antibiotics” (Wyeth Holdings Corporation, priority 2001, dated 2005)
≈ marks a conversion by molar mass, not a printed value.

How the values were obtained:
Assay in all cases: in vitro antibacterial evaluation, MIC by broth dilution
Assay type in all cases: cell-based
[1] = tested on: Escherichia coli
Outline: (§1)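 Following National Committee for Clinical Laboratory Standards recommendations (M7-A2), susceptibility was measured by dilution in Muller-Hinton II […]. Bacteria were seeded at 5×10^5 CFU/mL against compound concentrations from 64 down to 0.06 μg/mL.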

[2] = tested on: Staphylococcus sp.; conditions: broth dilution, 18 hours at 35° C.; for MIC Staphylococcus aureus (GC 1131): strain GC 1131
Outline: as §1

[3] = tested on: Enterococcus sp.; conditions: broth dilution, 18 hours at 35° C.
Outline: as §1

[4] = tested on: Streptococcus sp.; conditions: broth dilution, 18 hours at 35° C.
Outline: as §1

CC(c1ccccc1)C1NC(=O)CNC(=O)C(CO)NC(=O)C(C(O)C2CNC(=N)N2C2OC(CO)C(O)C(O)C2O)NC(=O)C(C(O)C2CNC(=N)N2)NC(=O)C(Cc2ccc(OC3OC(CO)C(OC4OC5COC(c6ccc7ccccc7c6)OC5C(O)C4O)C(O)C3O)cc2)NC1=O (stereo not drawn) [Example 145]
MIC Escherichia coli (ATCC 25922) ([1]; strain ATCC 25922, 18 hours at 35° C.): 64 µg/mL (≈ 44.6 µM) | MIC Escherichia coli (GC 4559) ([1]; strain GC 4559, 18 hours at 35° C.): 32 µg/mL (≈ 22.3 µM) | MIC Escherichia coli (GC 4560) ([1]; strain GC 4560, 18 hours at 35° C.): <0.5 µg/mL | MIC Staphylococcus aureus (GC 1131) ([2]; inoculum 5×10^5 CFU/mL): <0.5 µg/mL | MIC Staphylococcus aureus (ATCC 29213) ([2]; strain ATCC 29213): 1 µg/mL (≈ 0.698 µM) | MIC Staphylococcus aureus (GC 1131) [2]: <0.5 µg/mL | MIC Staphylococcus aureus (GC 3051) ([2]; strain GC 3051): 1 µg/mL (≈ 0.698 µM) | MIC Staphylococcus aureus (GC 3053) ([2]; strain GC 3053): 1 µg/mL (≈ 0.698 µM) | MIC Staphylococcus aureus (GC 4541) ([2]; strain GC 4541): <0.5 µg/mL | MIC Staphylococcus aureus (GC 4542) ([2]; strain GC 4542): <0.5 µg/mL | MIC Staphylococcus aureus-SMITH (GC 4543) ([2]; strain GC 4543): <0.5 µg/mL | MIC Staphylococcus aureus (GC 4544) ([2]; strain GC 4544): 1 µg/mL (≈ 0.698 µM) | MIC Staphylococcus aureus (GC 4545) ([2]; strain GC 4545): 1 µg/mL (≈ 0.698 µM) | MIC Staphylococcus haemolyticus (GC 4546) ([2]; strain GC 4546): <0.5 µg/mL | MIC Coagulase Negative Staphylococcus (GC 4547) ([2]; strain GC 4547): 1 µg/mL (≈ 0.698 µM) | MIC Coagulase Negative Staphylococcus (GC 4548) ([2]; strain GC 4548): <0.5 µg/mL | MIC Coagulase Negative Staphylococcus (GC 4549) ([2]; strain GC 4549): 1 µg/mL (≈ 0.698 µM) | MIC Coagulase Negative Staphylococcus (GC 4551) ([2]; strain GC 4551): <0.5 µg/mL | MIC Coagulase Negative Staphylococcus (GC 6257) ([2]; strain GC 6257): 0.5 µg/mL (≈ 0.349 µM) | MIC Staphylococcus aureus-SMITH (GC 4543) ([2]; strain SMITH GC 4543): <0.5 µg/mL | MIC Enterococcus avium (GC 4558) ([3]; Enterococcus avium (GC 4558)): 1 µg/mL (≈ 0.698 µM) | MIC Enterococcus faecalis (ATCC 29212) ([3]; Enterococcus faecalis (ATCC 29212)): 1 µg/mL (≈ 0.698 µM) | MIC Enterococcus faecalis (GC 2242) ([3]; Enterococcus faecalis (GC 2242)): <0.5 µg/mL | MIC Enterococcus faecalis (GC 2691) ([3]; Enterococcus faecalis (GC 2691)): 1 µg/mL (≈ 0.698 µM) | MIC Enterococcus faecalis (GC 3059) ([3]; Enterococcus faecalis (GC 3059)): 1 µg/mL (≈ 0.698 µM) | MIC Enterococcus faecalis (GC 4552) ([3]; Enterococcus faecalis (GC 4552)): 1 µg/mL (≈ 0.698 µM) | MIC Enterococcus faecalis (GC 4553) ([3]; Enterococcus faecalis (GC 4553)): 2 µg/mL (≈ 1.4 µM) | MIC Enterococcus faecalis (GC 4554) ([3]; Enterococcus faecalis (GC 4554)): 1 µg/mL (≈ 0.698 µM) | MIC Enterococcus faecalis (GC 6189) ([3]; Enterococcus faecalis (GC 6189)): 1 µg/mL (≈ 0.698 µM) | MIC Enterococcus faecium (GC 2243) ([3]; Enterococcus faecium (GC 2243)): 1 µg/mL (≈ 0.698 µM) | MIC Enterococcus faecium (GC 4556) ([3]; Enterococcus faecium (GC 4556)): 1 µg/mL (≈ 0.698 µM) | MIC Enterococcus faecium (GC 4557) ([3]; Enterococcus faecium (GC 4557)): 1 µg/mL (≈ 0.698 µM) | MIC Enterococcus faecalis (ATCC 29212) ([3]; strain ATCC 29212): 1 µg/mL (≈ 0.698 µM) | MIC Enterococcus faecalis (GC 2242) ([3]; strain GC 2242): <0.5 µg/mL | MIC Enterococcus faecium (GC 2243) ([3]; strain GC 2243): 1 µg/mL (≈ 0.698 µM) | MIC Enterococcus faecalis (GC 2691) ([3]; strain GC 2691): 1 µg/mL (≈ 0.698 µM) | MIC Enterococcus faecalis (GC 3059) ([3]; strain GC 3059): 1 µg/mL (≈ 0.698 µM) | MIC Enterococcus faecalis (GC 4552) ([3]; strain GC 4552): 1 µg/mL (≈ 0.698 µM) | MIC Enterococcus faecalis (GC 4553) ([3]; strain GC 4553): 2 µg/mL (≈ 1.4 µM) | MIC Enterococcus faecalis (GC 4554) ([3]; strain GC 4554): 1 µg/mL (≈ 0.698 µM) | MIC Enterococcus faecium (GC 4556) ([3]; strain GC 4556): 1 µg/mL (≈ 0.698 µM) | MIC Enterococcus faecium (GC 4557) ([3]; strain GC 4557): 1 µg/mL (≈ 0.698 µM) | MIC Enterococcus avium (GC 4558) ([3]; strain GC 4558): 1 µg/mL (≈ 0.698 µM) | MIC Enterococcus faecalis (GC 6189) ([3]; strain GC 6189): 1 µg/mL (≈ 0.698 µM) | MIC Streptococcus agalactiae (GC 4564) ([4]; Streptococcus agalactiae (GC 4564)): <0.5 µg/mL | MIC Streptococcus pneumoniae (ATCC 6301) ([4]; Streptococcus pneumoniae (ATCC 6301)): <0.5 µg/mL | MIC Streptococcus pneumoniae (GC 1894) ([4]; Streptococcus pneumoniae (GC 1894)): <0.5 µg/mL | MIC Streptococcus pneumoniae (GC 4565) ([4]; Streptococcus pneumoniae (GC 4565)): <0.5 µg/mL | MIC Streptococcus pyogenes (GC 4563) ([4]; Streptococcus pyogenes (GC 4563)): 1 µg/mL (≈ 0.698 µM) | MIC Streptococcus pneumoniae (ATCC 6301) ([4]; strain ATCC 6301): <0.5 µg/mL | MIC Streptococcus pneumoniae (GC 1894) ([4]; strain GC 1894): <0.5 µg/mL | MIC Streptococcus pyogenes (GC 4563) ([4]; strain GC 4563): 1 µg/mL (≈ 0.698 µM) | MIC Streptococcus agalactiae (GC 4564) ([4]; strain GC 4564): <0.5 µg/mL | MIC Streptococcus pneumoniae (GC 4565) ([4]; strain GC 4565): <0.5 µg/mL
